One test relates to Gallus gallus. Kind of test: Effect on vasodepressor activity in conscious chicken. It is filed as functional.
The species named for test [1] is Rattus norvegicus. Kind of test: Effect on pressor response in rat. Format: functional, organism-based.
The species named for test [2] is Rattus norvegicus. Kind of test: Antidiuretic activity in rat. It is filed as functional, Urine.
For test [3], the species on record is Rattus norvegicus. Kind of test: Uterotonic activity in rat. Format: functional.

The source made the active and inactive calls. The rule behind the calls is not given here. Where a SMILES comes first, the peptide text is derived from it. Bridges are numbered along the chain shown (N, C = ends). [ ]: non-standard residue; d: D form. ξ: configuration not given here. ξDap = NCC(N)C(=O)O; βAla = NCCC(=O)O

`CC[C@H](C)[C@@H]1NC(=O)[C@H](Cc2ccc(O)cc2)NC(=O)[C@@H](N)CC(=O)NCC(C(=O)N2CCC[C@H]2C(=O)N[C@@H](CC(C)C)C(=O)NCC(N)=O)NC(=O)[C@H](CC(N)=O)NC(=O)[C@H](CCC(N)=O)NC1=O` (stereo partly drawn) (H-DYIQN[ξDap]PLG-NH2; lactam 1-6): the Activity in the test with Gallus gallus was determined as 6.6 U/mg; in the test listed under Rattus norvegicus [2] it was 5.6 U/mg; in the test filed under Rattus norvegicus [3], 16 U/mg. Also, the result in the test filed under Rattus norvegicus [1] was Active.
`CC[C@H](C)[C@@H]1NC(=O)[C@H](Cc2ccc(O)cc2)NC(=O)CCNC(=O)C[C@@H](C(=O)N2CCC[C@H]2C(=O)N[C@@H](CC(C)C)C(=O)NCC(N)=O)NC(=O)[C@H](CC(N)=O)NC(=O)[C@H](CCC(N)=O)NC1=O` ([βAla]YIQNDPLG-NH2; lactam N-6) yielded an Activity in the test filed under Rattus norvegicus [3] of 1.13 U/mg.
As to `CC[C@H](C)[C@@H]1NC(=O)[C@H](Cc2ccc(O)cc2)NC(=O)[C@@H](N)CSSC[C@@H](C(=O)N2CCC[C@H]2C(=O)N[C@@H](CC(C)C)C(=O)NCC(N)=O)NC(=O)[C@H](CC(N)=O)NC(=O)[C@H](CCC(N)=O)NC1=O` [OXYTOCIN], the Activity with Gallus gallus is 500 U/mg; in the test listed under Rattus norvegicus [2], 3 U/mg; in the test listed under Rattus norvegicus [3], 540 U/mg.
